{"source": "patent US20100144853A1", "about": "“NOVEL COMBINED ADMINISTRATION” (priority 2008, published 2010)", "type_in_all_cases": "in vitro ADME", "key": {"Lipase from Hog Pancreas": {"test_system": "Lipase from Hog Pancreas", "test": "Stability of COMPOUND A with Lipase, with and without COMPOUND B (Example 1)", "conditions": "0.55 mg/mL (11 U/mL) Lipase", "method": "(a) FeSSIF (Fed State Simulated Intestinal Fluid) and phosphate buffered saline solution:\n(b) Stock A=drug solution (0.5 mg/mL):\n5 mg of thioisobutyric acid S-(2-{[1-(2-ethyl-butyl)-cyclohexanecarbonyl]-amino}-phenyl)ester (COMPOUND A) were dissolved in 50 μL ethanol and 950 μL mixed micelles Soybean lecithin/Sodium glycocholate (158/97 mg/mL) in water were added. One part of the mixture was diluted with 9 parts of phosphate buffered saline solution at pH 6.5.\n(c) Stock B=esterase inhibitor solution (1.0 mg/mL)\n5 mg 1-(3-hexyl-4-oxo-oxetan-2-yl)tridecan-2-yl 2-formyl-amino-4-methyl-pentanoate (COMPOUND B) were dissolved in 250 μL ethanol. 4.75 mL mixed micelles soybean lecithin/sodium glycocholate (30/80.6 mg/mL) were added to give a solution of 1 mg/mL COMPOUND B.\n(d) Stock C=Lipase in phosphate buffered saline solution (PBS) pH 6.5 (example given at 24 mg/mL, with a final enzyme activity of about 450 U/mL)\n240 mg Lipase (Lipase from Hog Pancreas, 20.6 U/mg Lipase, CAS No. 9001-62-1, Fluka, Art. No. 62300) were weighed into a vial and dissolved by stirring in 10 mL phosphate buffered saline solution pH 6.5. Any undissolved material was removed by centrifugation during 5 min at 5000 rpm. The supernatant was used for the experiments and diluted with PBS to obtain the Lipase at the final concentration of 0.55 mg/mL.\n[…] To this, 200 μL of drug solution (stock A) were injected at time zero. The mixture was incubated at 37° C., while mixing gently with a rotating shaker at about 2 rpm. At regular intervals 200 μL samples were taken and diluted immediately with 600 μL of isopropanol. The combined solution/suspension was centrifuged during 5 min at 3000 rpm and the concentration of COMPOUND A as well as its potential degradation products were determined in the supernatant by HPLC analysis.\nTo obtain the value at time zero, 600 μL of isopropanol were added to 180 μL of a 0.55 mg/mL Lipase in a phosphate buffered saline solution to inhibit the enzymes followed by the addition of 20 μL of drug solution (stock A)."}, "[1]": {"test": "Stability of COMPOUND A in human intestinal fluids, Procedure D (in solution), fasted", "conditions": "fasted intestinal fluid", "method": "(§1) Procedure D (COMPOUND A and COMPOUND B in Solution):\nFasted Intestinal Fluids: the fluids from 4 different subjects were collected with a naso-jejunal tube after fasting overnight and pooled.\n(§2) 5 mg of thioisobutyric acid S-(2-{[1-(2-ethyl-butyl)-cyclohexanecarbonyl]-amino}-phenyl)ester (COMPOUND A) were dissolved in 50 μL ethanol and 950 μL mixed micelles solution containing Soybean lecithin/Sodium glycocholate (158/97 mg/mL) in water were added.\n(§3) 3 mg of 1-(3-hexyl-4-oxo-oxetan-2-yl)tridecan-2-yl 2-formyl-amino-4-methyl-pentanoate (COMPOUND B) were dissolved in 1 mL of ethanol. 100 μL of this solution was diluted with 900 μL of FeSSIF concentrate (10×).\n(§4) 100 μL of drug solution (stock D) were mixed with 100 μL of esterase inhibitor solution (stock E) and 800 μL of pro-FaSSIF were added.\n(§5) 100 μL of premix (stock F) were mixed with 200 μL of drug solution (stock A).\n(§6) 200 μL of premix (stock F) were mixed with 100 μL of drug solution (stock A). 315 μL of intestinal fluids (fasted and stimulated) were pre-heated at 37° C. for about 5 min. At time zero, 35 μL of premix solutions were added, i.e. either stock A, stock G, stock H or stock F, to obtain 50 μg/mL of COMPOUND A and final concentrations of COMPOUND B of 0, 1, 2 or 3 μg/mL. The samples were incubated at 37° C. while gently stirring. The reaction was stopped after 2 min or after 10 min by dilution of 1 part of the reaction mixture with 3 parts of isopropanol and the resulting mixture was centrifuged for 5 min at 5′000 rpm. The supernatant was analyzed by HPLC."}, "[2]": {"test": "Stability of COMPOUND A in human intestinal fluids, Procedure D (in solution), stimulated", "conditions": "stimulated intestinal fluid", "method": "as §1\nStimulated Intestinal Fluids: the fluids from 3 different subjects were collected after fasting overnight with a nasojejunal tube and pooled. For the stimulation, twenty minutes before the beginning of the collection, volunteers were provided with chewing-gums and were asked to chew over a 15 minutes period, maintaining the taste by replacing the sticks of gum approximately every 2 minutes.\nas §2, §3, §4, §5, §6"}, "[3]": {"conditions": "COMPOUND B 0 μg/mL, 2 min, theoretical 50 μg/mL"}}}
{"smiles": "CCC(CC)CC1(C(=O)Nc2ccccc2SC(=O)C(C)C)CCCCC1", "note": "[COMPOUND A, thioisobutyric acid S-(2-{[1-(2-ethyl-butyl)-cyclohexanecarbonyl]-amino}-phenyl)ester]", "values": [{"measurement": "Concentration of COMPOUND A", "setting": "Lipase from Hog Pancreas; +100 μg/mL COMPOUND B, 5 min", "value": 48200, "unit": "ng/mL"}, {"measurement": "Concentration of COMPOUND A", "setting": "Lipase from Hog Pancreas; +100 μg/mL COMPOUND B, 10 min", "value": 48200, "unit": "ng/mL"}, {"measurement": "Concentration of COMPOUND A", "setting": "Lipase from Hog Pancreas; +100 μg/mL COMPOUND B, 15 min", "value": 48200, "unit": "ng/mL"}, {"measurement": "Concentration of COMPOUND A", "setting": "Lipase from Hog Pancreas; +100 μg/mL COMPOUND B, 20 min", "value": 48000, "unit": "ng/mL"}, {"measurement": "Concentration of COMPOUND A", "setting": "Lipase from Hog Pancreas; +100 μg/mL COMPOUND B, 30 min", "value": 48300, "unit": "ng/mL"}, {"measurement": "Concentration of COMPOUND A", "setting": "Lipase from Hog Pancreas; +100 μg/mL COMPOUND B, 60 min", "value": 40100, "unit": "ng/mL"}, {"measurement": "Concentration of COMPOUND A", "setting": "Lipase from Hog Pancreas; time 0 min (column +100 μg/mL COMPOUND B), theoretical 50 μg/mL", "value": 46900, "unit": "ng/mL"}, {"measurement": "Concentration of COMPOUND A", "setting": "Lipase from Hog Pancreas; w/o COMPOUND B, 5 min", "value": 27200, "unit": "ng/mL"}, {"measurement": "Concentration of COMPOUND A", "setting": "Lipase from Hog Pancreas; w/o COMPOUND B, 10 min", "value": 14700, "unit": "ng/mL"}, {"measurement": "Concentration of COMPOUND A", "setting": "Lipase from Hog Pancreas; w/o COMPOUND B, 15 min", "value": 7300, "unit": "ng/mL"}, {"measurement": "Concentration of COMPOUND A", "setting": "Lipase from Hog Pancreas; w/o COMPOUND B, 20 min", "value": 4100, "unit": "ng/mL"}, {"measurement": "Concentration of COMPOUND A", "setting": "Lipase from Hog Pancreas; w/o COMPOUND B, 30 min", "value": "<100", "unit": "ng/mL"}, {"measurement": "Concentration of COMPOUND A", "setting": "Lipase from Hog Pancreas; w/o COMPOUND B, 60 min", "value": "<100", "unit": "ng/mL"}, {"measurement": "Concentration of COMPOUND A", "setting": "[1]; [3]", "value": 480, "unit": "ng/mL"}, {"measurement": "Concentration of COMPOUND A", "setting": "[1]; COMPOUND B 0 μg/mL, 10 min", "value": 480, "unit": "ng/mL"}, {"measurement": "Concentration of COMPOUND A", "setting": "[1]; COMPOUND B 1 μg/mL, 2 min", "value": 18000, "unit": "ng/mL"}, {"measurement": "Concentration of COMPOUND A", "setting": "[1]; COMPOUND B 1 μg/mL, 10 min", "value": 1580, "unit": "ng/mL"}, {"measurement": "Concentration of COMPOUND A", "setting": "[1]; COMPOUND B 2 μg/mL, 2 min", "value": 36910, "unit": "ng/mL"}, {"measurement": "Concentration of COMPOUND A", "setting": "[1]; COMPOUND B 2 μg/mL, 10 min", "value": 28590, "unit": "ng/mL"}, {"measurement": "Concentration of COMPOUND A", "setting": "[1]; COMPOUND B 3 μg/mL, 2 min", "value": 43720, "unit": "ng/mL"}, {"measurement": "Concentration of COMPOUND A", "setting": "[1]; COMPOUND B 3 μg/mL, 10 min", "value": 37240, "unit": "ng/mL"}, {"measurement": "Concentration of COMPOUND A", "setting": "[2]; [3]", "value": 480, "unit": "ng/mL"}, {"measurement": "Concentration of COMPOUND A", "setting": "[2]; COMPOUND B 0 μg/mL, 10 min", "value": 480, "unit": "ng/mL"}, {"measurement": "Concentration of COMPOUND A", "setting": "[2]; COMPOUND B 1 μg/mL, 2 min", "value": 26060, "unit": "ng/mL"}, {"measurement": "Concentration of COMPOUND A", "setting": "[2]; COMPOUND B 1 μg/mL, 10 min", "value": 2760, "unit": "ng/mL"}, {"measurement": "Concentration of COMPOUND A", "setting": "[2]; COMPOUND B 2 μg/mL, 2 min", "value": 38920, "unit": "ng/mL"}, {"measurement": "Concentration of COMPOUND A", "setting": "[2]; COMPOUND B 2 μg/mL, 10 min", "value": 24930, "unit": "ng/mL"}, {"measurement": "Concentration of COMPOUND A", "setting": "[2]; COMPOUND B 3 μg/mL, 2 min", "value": 46910, "unit": "ng/mL"}, {"measurement": "Concentration of COMPOUND A", "setting": "[2]; COMPOUND B 3 μg/mL, 10 min", "value": 40480, "unit": "ng/mL"}]}
